Measured values published in BigSolDB 2.1.

O=C(O)CCCC(=O)O
Settings | solubility (mole fraction)
in acetic acid, 292.75 K | 0.162
in acetic acid, 297.84 K | 0.183
in acetic acid, 301.3 K | 0.203
in acetic acid, 304.47 K | 0.221
in acetic acid, 307.28 K | 0.241
in acetic acid, 310.19 K | 0.257
in acetic acid, 313.64 K | 0.28
in acetic acid, 316.5 K | 0.302
in acetic acid, 319.05 K | 0.323
in acetic acid, 321.38 K | 0.345
in acetic acid, 325.45 K | 0.373
in acetic acid, 327.38 K | 0.399
in acetic acid, 332.97 K | 0.436
in acetic acid, 335.25 K | 0.478
in acetic acid, 338.05 K | 0.514
in acetic acid, 341.94 K | 0.553
in acetic acid, 344.21 K | 0.585
in acetic acid, 347.24 K | 0.621
in acetic acid, 349.88 K | 0.651
in acetic acid, 353.36 K | 0.712
in cyclohexanol, 299.75 K | 0.205
in cyclohexanol, 302.7 K | 0.219
in cyclohexanol, 305.85 K | 0.234
in cyclohexanol, 308.6 K | 0.25
in cyclohexanol, 313.19 K | 0.271
in cyclohexanol, 316 K | 0.288
in cyclohexanol, 318.55 K | 0.312
in cyclohexanol, 320.55 K | 0.33
in cyclohexanol, 325.15 K | 0.366
in cyclohexanol, 326.5 K | 0.371
in cyclohexanol, 332.55 K | 0.428
in cyclohexanol, 334.9 K | 0.455
in cyclohexanol, 336.3 K | 0.477
in cyclohexanol, 339.75 K | 0.511
in cyclohexanol, 342.15 K | 0.545
in cyclohexanol, 344.8 K | 0.571
in cyclohexanol, 347.19 K | 0.622
in cyclohexanol, 350.05 K | 0.66
in cyclohexanol, 351.93 K | 0.693
in cyclohexanol, 352.48 K | 0.719
in cyclohexanol, 352.95 K | 0.748
in cyclohexanone, 294 K | 0.161
in cyclohexanone, 299.7 K | 0.189
in cyclohexanone, 304.5 K | 0.213
in cyclohexanone, 308.05 K | 0.241
in cyclohexanone, 311.94 K | 0.264
in cyclohexanone, 314.15 K | 0.283
in cyclohexanone, 317.54 K | 0.307
in cyclohexanone, 320.3 K | 0.334
in cyclohexanone, 325.05 K | 0.366
in cyclohexanone, 326.95 K | 0.392
in cyclohexanone, 330.5 K | 0.428
in cyclohexanone, 333.81 K | 0.458
in cyclohexanone, 335.23 K | 0.478
in cyclohexanone, 338.35 K | 0.513
in cyclohexanone, 342.65 K | 0.557
in cyclohexanone, 346.8 K | 0.598
in cyclohexanone, 347.65 K | 0.627
in cyclohexanone, 349.7 K | 0.655
in cyclohexanone, 351.5 K | 0.679
in cyclohexanone, 353.65 K | 0.705
